Measured values published in ChEMBL document CHEMBL1149507, “Synthesis, structure, and bioactivity of N'-substituted benzylidene-3,4,5-trimethoxybenzohydrazide and 3-acetyl-2-substituted phenyl-5-(3,4,5-trimethoxyphenyl)-2,3-dihydro-1,3,4-oxadiazole derivatives” (Bioorg Med Chem Lett, 2006).

What was measured:
Bcap37 [1] = experiment: Antiproliferative activity against human Bcap37 cell line at 1 uM by MTT assay; format: functional
PC-3 [2] = experiment: Antiproliferative activity against human PC3 cell line at 1 uM by MTT assay; format: functional
BGC-823 [3] = experiment: Antiproliferative activity against human BGC823 cell line at 5 uM by MTT assay; format: functional
BGC-823 [4] = experiment: Antiproliferative activity against human BGC823 cell line at 1 uM by MTT assay; format: functional
PC-3 [5] = experiment: Antiproliferative activity against human PC3 cell line at 5 uM by MTT assay; format: functional
Bcap37 [6] = experiment: Antiproliferative activity against human Bcap37 cell line at 5 uM by MTT assay; format: functional
PC-3 [7] = experiment: Antiproliferative activity against human PC3 cell line by MTT assay; format: functional, cell-based

IC50 (PC-3 [7]) [nM]	Structure (SMILES)	inhibition at 1 µM (Bcap37 [1]) [%]	inhibition at 1 µM (PC-3 [2]) [%]	inhibition at 5 µM (BGC-823 [3]) [%]	inhibition at 1 µM (BGC-823 [4]) [%]	inhibition at 5 µM (PC-3 [5]) [%]	inhibition at 5 µM (Bcap37 [6]) [%]
	COc1ccc(OC)c(/C=N/NC(=O)c2cc(OC)c(OC)c(OC)c2)c1	0	30.9	10.1	0.1	51.7	0
	COc1cc(C2=NN(C(C)=O)C(c3c(Cl)cccc3Cl)O2)cc(OC)c1OC (configuration not stated)	9.3	5.1	15.9	-1.4	-2.2	45.8
	COc1cc(C(=O)N/N=C/c2ccc(F)cc2)cc(OC)c1OC	50.2	76	61.1	50.9	82.8	55.5
	COc1cc(C2=NN(C(C)=O)C(c3ccccc3F)O2)cc(OC)c1OC (configuration not stated)	-1.5	13.5	32.8	29.6	31.6	-2
	COc1ccc(/C=N/NC(=O)c2cc(OC)c(OC)c(OC)c2)c(OC)c1	-3	10	3.6	-6.9	22.2	-0.1
	COc1cc(C2=NN(C(C)=O)C(c3ccc(F)c(F)c3)O2)cc(OC)c1OC (configuration not stated)	-1.3	35.5	21.6	18.3	46.9	2.3
	COc1cc(C2=NN(C(C)=O)C(c3ccc(F)cc3)O2)cc(OC)c1OC (configuration not stated)	-1.4	0	13.3	-0.4	0.1	-0.1
	COc1cc(C2=NN(C(C)=O)C(c3ccc(C(F)(F)F)cc3)O2)cc(OC)c1OC (configuration not stated)	-3.5	-11	3.4	4.2	-0.7	14.2
	COc1cc(C(=O)N/N=C/c2ccc(C(F)(F)F)cc2)cc(OC)c1OC	61.8	59.9	56.3	47.4	61.6	65.6
	COc1cc(C(=O)N/N=C/c2c(Cl)cccc2Cl)cc(OC)c1OC	-7.2	43	27.8	0.9	52.1	2.9
	COc1cc(C2=NN(C(C)=O)C(c3ccccc3C(F)(F)F)O2)cc(OC)c1OC (configuration not stated)	-1.2	-11	34.8	31.8	15.2	16.2
	COc1cc(/C=N/NC(=O)c2cc(OC)c(OC)c(OC)c2)cc(OC)c1OC	11.8	8.5	22.9	-5	48.3	13.6
	COc1cccc(/C=N/NC(=O)c2cc(OC)c(OC)c(OC)c2)c1OC	-2.3	53.2	14.2	-0.1	67	12.3
1700	COc1cc(C2=NN(C(C)=O)C(c3cc(Cl)cc(Cl)c3)O2)cc(OC)c1OC (configuration not stated)	-1.1	52.7	6.6	0	93.9	1.3
	COc1cc(C2=NN(C(C)=O)C(c3cc(OC)c(OC)c(OC)c3)O2)cc(OC)c1OC (configuration not stated)	5.1	-1.8	-1.4	-1.8	0.1	5.4
	COc1cc(C(=O)N/N=C/c2ccc(Cl)c([N+](=O)[O-])c2)cc(OC)c1OC	-4.4	32.1	2.3	-5.8	42.3	9.6
	COc1cc(C(=O)N/N=C/c2ccccc2F)cc(OC)c1OC	58.9	70.6	76.5	51.6	81.8	81.8
	COc1cc(C(=O)N/N=C/c2ccccc2C(F)(F)F)cc(OC)c1OC	56.8	45	35.6	22.1	52.9	80
	COc1cc(C2=NN(C(C)=O)C(c3ccc(Cl)c(Cl)c3)O2)cc(OC)c1OC (configuration not stated)	-3.2	28.1	3.1	-0.8	26.1	0
	COc1cc(C2=NN(C(C)=O)C(c3cccc(C(F)(F)F)c3)O2)cc(OC)c1OC (configuration not stated)	10.1	30.1	41.1	27.9	43.6	35.5
	COc1cc(C2=NN(C(C)=O)C(c3cccc(F)c3)O2)cc(OC)c1OC (configuration not stated)	14	16.5	37.7	14.7	43.5	23.8
	COc1ccc(OC)c(C2OC(c3cc(OC)c(OC)c(OC)c3)=NN2C(C)=O)c1 (configuration not stated)	-3.8	37.2	18.2	0.4	43.2	2.3
	COc1cc(C(=O)N/N=C/c2cc(Cl)cc(Cl)c2)cc(OC)c1OC	-5.4	22.1	9.2	-7.5	46.3	3.6
	COc1cc(C2=NN(C(C)=O)C(c3cccc(OC)c3OC)O2)cc(OC)c1OC (configuration not stated)	0.1	35	17.5	3.8	58.2	2.8
	COc1cc(C(=O)N/N=C/c2cccc(F)c2)cc(OC)c1OC	38	53.5	44.8	13.6	64.1	49
	COc1cc(C(=O)N/N=C/c2cccc(C(F)(F)F)c2)cc(OC)c1OC	8.3	51	33.8	17.7	79.8	15.5
	COc1cc(C2=NN(C(C)=O)C(c3ccc(Cl)c([N+](=O)[O-])c3)O2)cc(OC)c1OC (configuration not stated)	-2.9	43.3	0	-2.3	61.4	1
300	COc1ccc(C2OC(c3cc(OC)c(OC)c(OC)c3)=NN2C(C)=O)c(OC)c1 (configuration not stated)	-0.3	69.5	-3.1	6.3	92	2.5
	COc1cc(C(=O)N/N=C/c2ccc(F)c(F)c2)cc(OC)c1OC	58.5	35.1	51.9	33.1	43.7	68.2
	COc1cc(C(=O)N/N=C/c2ccc(Cl)c(Cl)c2)cc(OC)c1OC	0.1	13.5	32.7	29.6	31.6	0.6
